Results: patent publication US20050266106A1, “Use of fermented wheat germ extract as anti-inflammatory agent” (priority 2002, published 2005)

Test system: adjuvant arthritis (AA)
Test: histological studies of joints of AA rats
Format: in vivo
Protocol: The affected joints of the right hind foot pad together with the epiphyses of the bones and the surrounding fibrous and muscular tissues were fixed in buffered neutral 4% formalin. Decalcification was performed by using EDTA and the samples were embedded into paraffin. 8 μm thin longitudinal sections were cut and the sections were stained with hemotoxiline (H) and eosine (E). In the selected positive control and in the treated cases an immunoperoxidase reaction was performed to show CD4 and CD8 positive T-lymphocytes. The used antibody was the product of Santa Cruz (Santa Cruz, Calif., USA), applied in 1:100 dilution.
There was no significant difference between the groups receiving 24-hour and 14-day pretreatment, respectively.

Structure (SMILES)	Histological grade (average 1 to 3) of inflammatory infiltrates (2 × 0.05 mg/kg/day, 14-day pretreatment)	Histological grade (average 1 to 3) of inflammatory infiltrates (2 × 0.05 mg/kg/day, 24-hour pretreatment)	Histological grade (average 1 to 3) of inflammatory infiltrates (2 × 0.5 mg/kg/day, 14-day pretreatment)	Histological grade (average 1 to 3) of inflammatory infiltrates (2 × 0.5 mg/kg/day, 24-hour pretreatment)
C[C@@H]1C[C@H]2[C@@H]3CCC4=CC(=O)C=C[C@]4(C)[C@@]3(F)[C@@H](O)C[C@]2(C)[C@@]1(O)C(=O)CO [Dexamethasone]	1.2	1.4	–	–
COc1ccc2c(c1)c(CC(=O)O)c(C)n2C(=O)c1ccc(Cl)cc1 [Indomethacin]	–	–	1.2	1.0
